In brackets after ≈: the same amount, converted by molar mass. Non-standard residues stand in square brackets, D forms with d. Residues, ends and D or L forms follow the SMILES beside them. ξ: configuration not given here. Ac6c = NC1(C(=O)O)CCCCC1; Ac5c = NC1(C(=O)O)CCCC1; ξDab = NCCC(N)C(=O)O
Key:
[1] = Antibacterial activity against carbapenem-resistant Klebsiella pneumoniae K6 ATCC 700603 by two fold serial dilution method; assay type: functional, Klebsiella pneumoniae 700603
[2] = Antiproliferative activity against human PC3 cells after 72 hrs by Celltiter-Glo luminescent cell viability assay; assay type: functional, cell-based; conditions: PC-3, 72 h
[3] = tested on: Staphylococcus aureus; test: Antibacterial activity against methicillin-resistant Staphylococcus aureus USA 300 NRS 384 by two fold serial dilution method; assay type: functional
[4] = Antibacterial activity against Francisella tularensis SCHU S4 NR-643 by two fold serial dilution method; assay type: functional
[5] = Antiproliferative activity against human MIAPaCa2 cells after 72 hrs by Celltiter-Glo luminescent cell viability assay; assay type: functional, cell-based; conditions: MIA PaCa-2, 72 h
[6] = Antiproliferative activity against human IGROV1 cells after 72 hrs by Celltiter-Glo luminescent cell viability assay; assay type: functional, cell-based; conditions: IGROV-1, 72 h
[7] = Antibacterial activity against Bacillus anthracis Ames NR-3838 by two fold serial dilution method; assay type: functional, Bacillus anthracis str. Ames
[8] = tested on: Neisseria gonorrhoeae; test: Antibacterial activity against Neisseria gonorrhoeae F-18 ATCC 49226 by two fold serial dilution method; assay type: functional
[9] = tested on: Streptococcus pneumoniae; test: Antibacterial activity against Streptococcus pneumoniae 262 ATCC 49619 by two fold serial dilution method; assay type: functional
[10] = tested on: Burkholderia pseudomallei; test: Antibacterial activity against Burkholderia pseudomallei AHS 1 NCTC 8016 by two fold serial dilution method; assay type: functional
[11] = Antiproliferative activity against human UACC62 cells after 72 hrs by Celltiter-Glo luminescent cell viability assay; assay type: functional, cell-based; conditions: UACC-62, 72 h
[12] = tested on: A549; test: Antiproliferative activity against human A549 cells after 72 hrs by Celltiter-Glo luminescent cell viability assay; assay type: functional, cell-based; conditions: A549, 72 h
[13] = Antibacterial activity against Yersinia pestis CO92 NR641 by two fold serial dilution method; assay type: functional
[14] = tested on: RL; test: Antiproliferative activity against human RL cells after 72 hrs by Celltiter-Glo luminescent cell viability assay; assay type: functional, cell-based
[15] = tested on: CFPAC-1; test: Antiproliferative activity against human CFPAC-1 cells after 72 hrs by Celltiter-Glo luminescent cell viability assay; assay type: functional, cell-based; conditions: CFPAC-1, 72 h
[16] = tested on: Enterococcus faecalis; test: Antibacterial activity against Enterococcus faecalis Portland ATCC 29212 by two fold serial dilution method; assay type: functional; conditions: ATCC 29212 Portland
[17] = Antiproliferative activity against human COLO205 cells after 72 hrs by Celltiter-Glo luminescent cell viability assay; assay type: functional, cell-based; conditions: COLO 205, 72 h
[18] = tested on: Pseudomonas aeruginosa; test: Antibacterial activity against Pseudomonas aeruginosa Boston 41501 ATCC 27853 by two fold serial dilution method; assay type: functional
[19] = tested on: MCF7; test: Antiproliferative activity against human MCF7 cells after 72 hrs by Celltiter-Glo luminescent cell viability assay; assay type: functional, cell-based; conditions: MCF7, 72 h
[20] = tested on: NCI-H69; test: Antiproliferative activity against human NCI-H69 cells after 72 hrs by Celltiter-Glo luminescent cell viability assay; assay type: functional, cell-based; conditions: NCI-H69, 72 h
[21] = Antibacterial activity against Salmonella enterica LT2 Typhimurium ATCC 15277 by two fold serial dilution method; assay type: functional
[22] = tested on: Acinetobacter baumannii; test: Antibacterial activity against Acinetobacter baumannii B5W71 ATCC 15149 by two fold serial dilution method; assay type: functional
[23] = Antiproliferative activity against human DLD1 cells after 72 hrs by Celltiter-Glo luminescent cell viability assay; assay type: functional, cell-based; conditions: DLD-1, 72 h
[24] = tested on: Mycobacterium tuberculosis; test: Antibacterial activity against Mycobacterium tuberculosis H37Ra ATCC 2517 by two fold serial dilution method; assay type: functional
[25] = tested on: A498; test: Antiproliferative activity against human A498 cells after 72 hrs by Celltiter-Glo luminescent cell viability assay; assay type: functional, cell-based; conditions: A498, 72 h
[26] = tested on: Staphylococcus aureus; test: Antibacterial activity against Staphylococcus aureus Seattle 1945 ATCC 25923 by two fold serial dilution method; assay type: functional
[27] = tested on: Klebsiella aerogenes; test: Antibacterial activity against carbapenem-resistant Enterobacter aerogenes NCDC819-56 ATCC 13048 by two fold serial dilution method; assay type: functional
[28] = Antibacterial activity against Clostridium difficile VIP 10463 ATCC 43255 by two fold serial dilution method; assay type: functional, Clostridium difficile ATCC 43255; conditions: Clostridioides difficile

SMILES | MIC [1] | IC50 [2] | MIC [3] | MIC [4] | IC50 [5] | IC50 [6] | MIC [7] | MIC [8] | MIC [9] | MIC [10] | IC50 [11] | IC50 [12] | MIC [13] | IC50 [14] | IC50 [15] | MIC [16] | IC50 [17] | MIC [18] | IC50 [19] | IC50 [20] | other results
CC(=O)NCC(=O)N[C@@H](Cc1ccccc1)C(=O)NC1(C(=O)NCC(=O)NC2(C(=O)N[C@@H](CCCCN)C(=O)NC3(C(=O)NCC(=O)NC4(C(=O)N[C@@H](Cc5ccccc5)C(=O)NC5(C(=O)NCC(=O)NC6(C(=O)NCC(=O)N[C@@H](CCCCN)C(=O)NC7(C(=O)N[C@@H](CCCCN)C(=O)N[C@@H](CCCCN)C(=O)N[C@@H](CCCCN)C(=O)N[C@@H](CCCCN)C(N)=O)CCCC7)CCCC6)CCCC5)CCCC4)CCCC3)CCCC2)CCCC1 (Ac-GF[Ac5c]G[Ac5c]K[Ac5c]G[Ac5c]F[Ac5c]G[Ac5c]GK[Ac5c]KKKK-NH2) | > 46 µM | > 7.5 µM | > 46 µM | 22.9 µM (≈ 50 µg/mL) | > 7.5 µM | > 7.5 µM | > 46 µM | 22.9 µM (≈ 50 µg/mL) | > 46 µM | > 46 µM | > 7.5 µM | > 7.5 µM | > 46 µM | > 7.5 µM | > 7.5 µM | > 46 µM | > 7.5 µM | 22.9 µM (≈ 49.9 µg/mL) | > 7.5 µM | > 7.5 µM | MIC [21]: 5.71 µM (≈ 12.5 µg/mL); MIC [22]: 2.86 µM (≈ 6.25 µg/mL); IC50 [23]: > 7.5 µM; MIC [24]: 11.4 µM (≈ 25 µg/mL); IC50 [25]: > 7.5 µM; MIC [26]: > 46 µM; MIC [27]: > 46 µM; MIC [28]: 1.43 µM (≈ 3.13 µg/mL)
CC(=O)N[C@@H](CCCCN)C(=O)N[C@@H](CCCCN)C(=O)N[C@@H](CCCCN)C(=O)N[C@@H](CCCCN)C(=O)NCC(=O)N[C@@H](Cc1ccccc1)C(=O)NC1(C(=O)NCC(=O)NC2(C(=O)N[C@@H](CCCCN)C(=O)NC3(C(=O)NCC(=O)NC4(C(=O)N[C@@H](Cc5ccccc5)C(=O)NC5(C(=O)NCC(=O)NC6(C(=O)NCC(=O)N[C@@H](CCCCN)C(=O)NC7(C(N)=O)CCCCC7)CCCCC6)CCCCC5)CCCCC4)CCCCC3)CCCCC2)CCCCC1 (Ac-KKKKGF[Ac6c]G[Ac6c]K[Ac6c]G[Ac6c]F[Ac6c]G[Ac6c]GK[Ac6c]-NH2) | 43.8 µM (≈ 99.9 µg/mL) | > 7.5 µM | 43.8 µM (≈ 99.9 µg/mL) | 21.9 µM (≈ 49.9 µg/mL) | > 7.5 µM | > 7.5 µM | 1.37 µM (≈ 3.13 µg/mL) | 2.73 µM (≈ 6.24 µg/mL) | 21.9 µM (≈ 49.9 µg/mL) | > 44 µM | 6.4 µM | 7.2 µM | > 44 µM | 3.7 µM | > 7.5 µM | 21.9 µM (≈ 49.9 µg/mL) | 6.7 µM | 1.37 µM (≈ 3.13 µg/mL) | 7.3 µM | 2.2 µM | MIC [21]: 5.47 µM (≈ 12.5 µg/mL); MIC [22]: 2.73 µM (≈ 6.24 µg/mL); IC50 [23]: > 7.5 µM; MIC [24]: 21.9 µM (≈ 49.9 µg/mL); IC50 [25]: 4.2 µM; MIC [26]: 10.9 µM (≈ 25 µg/mL); MIC [27]: 43.8 µM (≈ 99.9 µg/mL); MIC [28]: 1.37 µM (≈ 3.13 µg/mL)
CC(=O)NCC(=O)N[C@@H](Cc1ccccc1)C(=O)NC1(C(=O)NCC(=O)NC2(C(=O)NC(CCN)C(=O)NC3(C(=O)NCC(=O)NC4(C(=O)N[C@@H](Cc5ccccc5)C(=O)NC5(C(=O)NCC(=O)NC6(C(=O)NCC(=O)NC(CCN)C(=O)NC7(C(=O)NC(CCN)C(=O)NC(CCN)C(=O)NC(CCN)C(=O)NC(CCN)C(N)=O)CCCCC7)CCCCC6)CCCCC5)CCCCC4)CCCCC3)CCCCC2)CCCCC1 (some centres undefined) (Ac-GF[Ac6c]G[Ac6c][ξDab][Ac6c]G[Ac6c]F[Ac6c]G[Ac6c]G[ξDab][Ac6c][ξDab][ξDab][ξDab][ξDab]-NH2) | 2.96 µM (≈ 6.26 µg/mL) | 6.5 µM | 5.91 µM (≈ 12.5 µg/mL) | 23.6 µM (≈ 50 µg/mL) | 4.4 µM | 2.3 µM | 2.96 µM (≈ 6.26 µg/mL) | 1.48 µM (≈ 3.13 µg/mL) | 47.3 µM (≈ 100 µg/mL) | > 47 µM | 1.9 µM | 2.4 µM | > 47 µM | 1.7 µM | 2.7 µM | 2.96 µM (≈ 6.26 µg/mL) | 6.4 µM | 1.48 µM (≈ 3.13 µg/mL) | 3 µM | 1.5 µM | MIC [21]: 1.48 µM (≈ 3.13 µg/mL); MIC [22]: 1.48 µM (≈ 3.13 µg/mL); IC50 [23]: 2.6 µM; MIC [24]: 11.8 µM (≈ 25 µg/mL); IC50 [25]: 2.1 µM; MIC [26]: 2.96 µM (≈ 6.26 µg/mL); MIC [27]: 2.97 µM (≈ 6.28 µg/mL); MIC [28]: 2.96 µM (≈ 6.26 µg/mL)
